From ChEMBL document CHEMBL3817789 (2016) come the findings set out here.

≈ marks a conversion by molar mass, not a printed value.

Format in all cases: functional
Test [1] has as its system Staphylococcus aureus. The experiment in a line: Antibacterial activity against methicillin-sensitive Staphylococcus aureus isolate SDS15016 after 24 hrs by broth microdilution method. Conditions: isolate SDS15016, 24 h.
Test [2] concerns Staphylococcus aureus. In words: Antibacterial activity against methicillin-resistant Staphylococcus aureus isolate SDSM1503 after 24 hrs by broth microdilution method. Particulars: isolate SDSM1503, 24 h. On the technique in general: Broth dilution looks for growth in wells or tubes with falling amounts of substance.
For test [3], the system named is Candida albicans. The experiment in a line: Antifungal activity against clinical isolates of Candida albicans SC5314 after 48 hrs by broth microdilution method. Conditions: SC5314, 48 h.

Consider `Oc1cc2ccc1Oc1cc(cc(O)c1O)CCc1ccc(c(O)c1)-c1c(O)cccc1CC2`, for which the MIC (commonly the lowest concentration that inhibits growth of the organism) in test [1] turned out to be 8 µg/mL (≈ 17.5 µM); in test [2], 16 µg/mL (≈ 35 µM). Besides, the MIC80 (usually an inhibitory concentration at the 80% level, which refers to growth in some studies and to a panel of isolates in others) in test [3] was more than 64 µg/mL.

Turning to `Oc1cc2ccc1Oc1cc(ccc1O)CCc1ccc(c(O)c1)-c1c(O)cccc1CC2`, the MIC was found to be 2 µg/mL (≈ 4.54 µM) in test [1] and 4 µg/mL (≈ 9.08 µM) in test [2]. The compound further returned an MIC80 in test [3] of more than 64 µg/mL.

Take `Oc1ccc2cc1Oc1ccc(cc1)CCc1c(Br)ccc(O)c1-c1cc(Br)c(cc1O)CC2`: the MIC in test [1] turned out to be 2 µg/mL (≈ 3.43 µM); in test [2], 4 µg/mL (≈ 6.87 µM). Moreover, the MIC80 in test [3] was found to be 8 µg/mL (≈ 13.7 µM).

On to `Oc1ccc2cc1Oc1ccc(cc1)CCc1cccc(O)c1-c1cc(Br)c(cc1O)CC2`, for which the MIC in test [1] was determined as 2 µg/mL (≈ 3.97 µM); in test [2], 4 µg/mL (≈ 7.95 µM). Also, the MIC80 in test [3] was more than 64 µg/mL.

Regarding `COc1cc2ccc1-c1c(O)cccc1CCc1ccc(cc1)Oc1cc(ccc1O)CC2`, the results for the MIC in test [1] and in test [2] were 2 µg/mL (≈ 4.56 µM) and 8 µg/mL (≈ 18.2 µM), respectively. The MIC80 in test [3] was more than 64 µg/mL.

`CO/N=C(\C(=O)N[C@@H]1C(=O)N2C(C(=O)O)=C(COC(C)=O)CS[C@H]12)c1csc(N)n1` [CEFOTAXIME]: the MIC was 4 µg/mL (≈ 8.78 µM) in test [1] and more than 128 µg/mL in test [2].

Take `Oc1ccc2cc1Oc1ccc(cc1)CCc1ccc(Br)c(O)c1-c1ccc(c(Br)c1O)CC2`: the MIC in test [1] is 4 µg/mL (≈ 6.87 µM); in test [2], 16 µg/mL (≈ 27.5 µM). In test [3], this compound registered an MIC80 of more than 64 µg/mL.

Turning to `Oc1cc2ccc1-c1c(ccc(Br)c1O)CCc1ccc(cc1)Oc1cc(cc(Br)c1O)CC2`, the results for the MIC in test [1] and in test [2] were 8 µg/mL (≈ 13.7 µM) and 16 µg/mL (≈ 27.5 µM), respectively. Further, the MIC80 in test [3] was more than 64 µg/mL.

In the case of `COc1cccc2c1-c1ccc(cc1O)CCc1ccc(O)c(c1)Oc1ccc(cc1)CC2`, the MIC in test [1] was found to be 2 µg/mL (≈ 4.56 µM); in test [2] it was 4 µg/mL (≈ 9.12 µM). The MIC80 in test [3] is more than 64 µg/mL.

On to `Oc1ccc2cc1Oc1ccc(cc1)CCc1ccc(Br)c(O)c1-c1cc(Br)c(cc1O)CC2`, for which the MIC was 2 µg/mL (≈ 3.43 µM) in test [1] and 4 µg/mL (≈ 6.87 µM) in test [2]. In addition, the MIC80 in test [3] was more than 64 µg/mL.

For `Oc1ccc2cc1Oc1ccc(cc1)CCc1c(Br)ccc(O)c1-c1ccc(c(Br)c1O)CC2`, the MIC was determined as 2 µg/mL (≈ 3.43 µM) in test [1] and 4 µg/mL (≈ 6.87 µM) in test [2]. In test [3], the MIC80 worked out at 8 µg/mL (≈ 13.7 µM).

Regarding `CC(C)(O/N=C(\C(=O)N[C@@H]1C(=O)N2C(C(=O)[O-])=C(C[n+]3ccccc3)CS[C@H]12)c1csc(N)n1)C(=O)O` [CEFTAZIDIME], the MIC in test [1] was 4 µg/mL (≈ 7.32 µM); in test [2], more than 128 µg/mL.

`Oc1cc2ccc1-c1c(O)cccc1CCc1ccc(cc1)Oc1cc(cc(O)c1O)CC2`: the MIC in test [1] was 2 µg/mL (≈ 4.54 µM); in test [2], 8 µg/mL (≈ 18.2 µM). Moreover, the MIC80 in test [3] was more than 64 µg/mL.

The compound `OC(Cn1cncn1)(Cn1cncn1)c1ccc(F)cc1F` [FLUCONAZOLE] had an MIC80 in test [3] of 2 µg/mL (≈ 6.53 µM).

As for `Oc1ccc2cc1Oc1ccc(cc1)CCc1cccc(O)c1-c1ccc(c(Br)c1O)CC2`, the MIC worked out at 2 µg/mL (≈ 3.97 µM) in test [1] and 8 µg/mL (≈ 15.9 µM) in test [2]. Besides, in test [3], the MIC80 is more than 64 µg/mL.

Regarding `Cc1onc(-c2ccccc2)c1C(=O)N[C@@H]1C(=O)N2[C@@H]1SC(C)(C)[C@@H]2C(=O)[O-].[Na+]`, the MIC in test [1] was 8 µg/mL; in test [2], more than 128 µg/mL.

In the case of `Cc1onc(-c2ccccc2Cl)c1C(=O)N[C@@H]1C(=O)N2[C@@H]1SC(C)(C)[C@@H]2C(=O)O` [CLOXACILLIN], the MIC in test [1] is 0.5 µg/mL (≈ 1.15 µM); in test [2], more than 128 µg/mL.
